Several values for one entry are separate records, joined by “and”; a condition that tells them apart may be missing. Equal values may be shown once.
Experiments:
Format in all cases: functional, Homo sapiens
Design in all cases: dose or concentration left out as unconfirmed
Colon cancer organoid [1] = experiment: Optimized Dual-Glo assay to identify co-culture induced drug vulnerabilities using donated chemical probes and chemogenomics kinase set in O06 CRC organoid and F06 CAF mono and co-culture. […] Cell viability is reported both mono and co-culture models.
Colon cancer organoid [2] = experiment: Optimized Dual-Glo assay to identify co-culture induced drug vulnerabilities using donated chemical probes and chemogenomics kinase set in O20 CRC organoid and F20 CAF mono and co-culture. […] Cell viability is reported both mono and co-culture models.
Colon cancer organoid [3] = experiment: Optimized Dual-Glo assay to identify co-culture induced drug vulnerabilities using donated chemical probes and chemogenomics kinase set in O14 CRC organoid and F14 CAF mono and co-culture. […] Cell viability is reported both mono and co-culture models.
[4] = Culture type Co-Culture, Transduced with Lucferase2-P2A-EGFP lentivirus
[5] = Culture type Co-Culture, Transduced with Renilla-dsRed lentivirus
[6] = Culture type Mono-Culture, Transduced with Lucferase2-P2A-EGFP lentivirus
[7] = Culture type Mono-Culture, Transduced with Renilla-dsRed lentivirus

Compound | Cell Viability (Colon cancer organoid [1]; [4]) | Cell Viability (Colon cancer organoid [1]; [5]) | Cell Viability (Colon cancer organoid [1]; [6]) | Cell Viability (Colon cancer organoid [1]; [7]) | Cell Viability (Colon cancer organoid [2]; [4]) | Cell Viability (Colon cancer organoid [2]; [5]) | Cell Viability (Colon cancer organoid [2]; [6]) | Cell Viability (Colon cancer organoid [2]; [7]) | Cell Viability (Colon cancer organoid [3]; [4]) | Cell Viability (Colon cancer organoid [3]; [5]) | Cell Viability (Colon cancer organoid [3]; [6]) | Cell Viability (Colon cancer organoid [3]; [7])
C=CC(=O)Nc1ccc2[nH]c(=O)n(C3CCN(Cc4ccc(-c5ccc6c(c5)NC(=O)CO6)cc4)CC3)c2c1 [RL2578] | 88.4189% | 104.707% | 87.6184% | 83.8435% | 101.172% | 98.7435% | 76.3776% | 83.481% | 109.086% | 76.9187% | 101.444% | 81.1144%
CCCc1cc(C)[nH]c(=O)c1CNC(=O)c1cc(-c2ccnc(N3CCN(C)CC3)c2)cc2c1cnn2C(C)C | 75.6598% | 125.188% | 109.33% | 104.205% | 55.9892% | 146.305% | 86.0915% | 120.133% | 90.4891% | 115.464% | 111.507% | 115.721%
OCCn1cc(-c2ccc3c(c2)CCC3=NO)c(-c2ccncc2)n1 | 81.3359% | 109.303% | 157.495% | 121.815% | 201.802% | 70.8995% | 81.9137% | 103.135% | 155.629% | 130.506% | 186.115% | 118.266%
CC1(C)C(N)=Nc2cc(OCCCN3Cc4ccc(OCCc5cn(CC(=O)N6CCC(CCN7CCCC7)CC6)nn5)cc4C3)c(OCC3CC3)cc21 | 85.8179% | 109.54% | 61.6099% | 146.021% | 94.7334% | 161.052% | 109.897% | 111.947% | 83.4014% | 129.005% | 107.567% | 119.85%
CC(=O)Nc1nc(CN2CCC[C@H](Cc3cc(C)nc(C)c3)C2)cs1 [JNJ-73924149] | 110.779% | 72.9092% | 164.947% | 124.842% | 90.3874% | 105.251% | 100.726% | 118.221% | 81.3438% | 100.385% | 108.387% | 92.0646%
CCCS(=O)(=O)c1nc(NC2CC2)cc(-c2ccc3c(ccn3C3CC(C)(C)NC(C)(C)C3)c2)n1 | 80.022% and 93.4216% | 88.9327% and 142.491% | 57.3495% and 53.1993% | 66.0436% and 80.8259% | 90.8821% and 132.572% | 94.2313% and 119.463% | 112.848% and 138.911% | 68.5534% and 89.7285% | 89.4811% and 97.6343% | 131.118% and 106.572% | 78.7545% and 88.3769% | 100.347% and 100.989%
N#Cc1cnc(Nc2cc(NC[C@H]3CNCCO3)c(C(F)(F)F)cn2)cn1 [SRA-737] | 89.9461% | 120.027% | 70.513% | 117.124% | 103.278% | 133.202% | 58.7772% | 96.135% | 41.9223% | 191.286% | 52.6101% | 101.86%
CNCCN1CCC(OCc2ccccc2)CC1 | 118.085% | 144.179% | 105.555% | 98.6528% | 15.2188% | 211.667% | 16.3767% | 101.684% | 36.6993% | 161.59% | 58.8026% | 109.763%
COCCc1ccc(-c2c(C)nc3c(N4CCOCC4)ccnn23)cn1 [JNJ-42396302] | 95.3565% | 88.7666% | 124.422% | 103.43% | 126.017% | 102.271% | 117.378% | 103.223% | 101.077% | 99.3561% | 103.596% | 90.5469%

— ChEMBL document CHEMBL5674860, “Optimized Dual-Glo Assay to identify co-culture-induced drug vulnerabilities in 3D CRC models” (2024)
